Results reported in the supplement of paper PMC10307832.

How the values were obtained:
Experiment in all cases: relative viability (nuclei count vs DMSO), 5 days (fraction); higher = more cells survive
Quizartinib + Olaparib = compound: CC(C)(C)c1cc(NC(=O)Nc2ccc(-c3cn4c(n3)sc3cc(OCCN5CCOCC5)ccc34)cc2)no1 [Quizartinib] + O=C(c1cc(Cc2n[nH]c(=O)c3ccccc23)ccc1F)N1CCN(C(=O)C2CC2)CC1 [Olaparib] (partner 8 µM)
In short: (§1)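 A single step with final 0.05% Triton X-100, 1% formaldehyde and 1 ug/ml Hoechst fixed the cells and stained nuclei 5 days after treatment. Lung cancer cell lines in 1536-well plates had been treated by pin tool the day after seeding with one drug alone or a fixed anchor-drug dose plus five library-drug doses (not always all listed) in √10 steps, and nuclei were counted on 4× images. Relative viability is the ratio of nuclei in treated wells to nuclei in vehicle wells, taken as the median of duplicate plates.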

YM155 + Bortezomib = compound: COCC[n+]1c2c(n(Cc3cnccn3)c1C)C(=O)c1ccccc1C2=O [YM155] + CC(C)C[C@H](NC(=O)[C@H](Cc1ccccc1)NC(=O)c1cnccn1)B(O)O [Bortezomib] (partner 0.002 µM)
In short: as §1

YM155 + Linsitinib = compound: COCC[n+]1c2c(n(Cc3cnccn3)c1C)C(=O)c1ccccc1C2=O [YM155] + C[C@]1(O)C[C@@H](c2nc(-c3ccc4ccc(-c5ccccc5)nc4c3)c3c(N)nccn32)C1 [Linsitinib] (partner 1 µM)
In short: as §1

Quizartinib + Alpelisib = compound: CC(C)(C)c1cc(NC(=O)Nc2ccc(-c3cn4c(n3)sc3cc(OCCN5CCOCC5)ccc34)cc2)no1 [Quizartinib] + Cc1nc(NC(=O)N2CCC[C@H]2C(N)=O)sc1-c1ccnc(C(C)(C)C(F)(F)F)c1 [Alpelisib] (partner 2 µM)
In short: as §1

Cell Line | relative viability (Quizartinib + Olaparib; first compound 0.001 µM) | relative viability (Quizartinib + Olaparib; first compound 0.003162 µM) | relative viability (Quizartinib + Olaparib; first compound 0.01 µM) | relative viability (Quizartinib + Olaparib; first compound 0.03162 µM) | relative viability (Quizartinib + Olaparib; first compound 0.1 µM) | relative viability (YM155 + Bortezomib; first compound 0.002 µM) | relative viability (YM155 + Bortezomib; first compound 0.006325 µM) | relative viability (YM155 + Bortezomib; first compound 0.02 µM) | relative viability (YM155 + Bortezomib; first compound 0.06325 µM) | relative viability (YM155 + Linsitinib; first compound 0.002 µM) | relative viability (YM155 + Linsitinib; first compound 0.006325 µM) | relative viability (YM155 + Linsitinib; first compound 0.02 µM) | relative viability (YM155 + Linsitinib; first compound 0.06325 µM) | relative viability (Quizartinib + Alpelisib; first compound 0.001 µM) | relative viability (Quizartinib + Alpelisib; first compound 0.003162 µM) | relative viability (Quizartinib + Alpelisib; first compound 0.01 µM) | relative viability (Quizartinib + Alpelisib; first compound 0.03162 µM) | relative viability (Quizartinib + Alpelisib; first compound 0.1 µM)
NCI-H1755 | 0.832 | 0.809 | 0.946 | 0.948 | 0.855 | 0.941 | 0.894 | 1.03 | 0.923 | 0.972 | 1.03 | 0.974 | 0.976 | 0.798 | 0.851 | 0.975 | 0.917 | 0.923
NCI-H1792 | 0.443 | 0.381 | 0.54 | 0.483 | 0.312 | 0.816 | 0.97 | 0.943 | 1 | 0.507 | 0.548 | 0.552 | 0.626 | 0.799 | 0.667 | 0.711 | 0.499 | 0.703
NCI-H1915 | 0.257 | 0.263 | 0.287 | 0.261 | 0.253 | 0.945 | 0.972 | 0.957 | 0.918 | 1.12 | 1.05 | 1.1 | 1.01 | 1.03 | 1.01 | 1.06 | 1.11 | 1.16
NCI-H1975 | 0.813 | 0.77 | 0.87 | 0.784 | 0.791 | 0.335 | 0.43 | 0.444 | 0.272 | 1.03 | 1.06 | 0.861 | 0.842 | 0.638 | 0.521 | 0.655 | 0.545 | 0.585
NCI-H1993 | 0.968 | 1.24 | 1.07 | 1.14 | 1.07 | 1.12 | 1.05 | 0.922 | 0.69 | 0.678 | 0.701 | 0.777 | 0.697 | 0.668 | 0.638 | 0.614 | 0.65 | 0.642
NCI-H2009 | 0.658 | 0.64 | 0.628 | 0.54 | 0.597 | 0.944 | 1.02 | 1.04 | 0.923 | 1.2 | 1.25 | 1.13 | 0.217 | 1.14 | 1.01 | 1.19 | 1.09 | 1.13
NCI-H2023 | 0.418 | 0.422 | 0.513 | – | 0.417 | 0.984 | 1.01 | 1.17 | 0.893 | 0.744 | 0.699 | 0.659 | 0.305 | 0.562 | 0.467 | 0.665 | 0.323 | 0.575
NCI-H2085 | 0.707 | 0.748 | 0.789 | 0.7 | 0.72 | 0.949 | 0.974 | 0.83 | 0.631 | 0.822 | 0.743 | 0.852 | 0.517 | 0.88 | 0.881 | 0.997 | 0.822 | 0.827
NCI-H2087 | 0.654 | 0.578 | 0.619 | 0.587 | 0.583 | 0.872 | 0.76 | 0.867 | 0.783 | 0.979 | 0.741 | 0.861 | 0.868 | 1.05 | 0.98 | 1.19 | 1.14 | 0.836
NCI-H2126 | 0.914 | 0.915 | 0.896 | 0.984 | 0.882 | 1.07 | 1.13 | 1.09 | 1.16 | 0.704 | 0.722 | 0.704 | 0.771 | 0.76 | 0.726 | 0.757 | 0.774 | 0.753
NCI-H2228 | 0.696 | 0.729 | 1.02 | 0.707 | 0.807 | 0.975 | 0.923 | 1.11 | 1.1 | 0.84 | 0.628 | 0.917 | 0.825 | 0.771 | 0.58 | 0.79 | 0.721 | 0.678
NCI-H2347 | 0.458 | 0.518 | 0.701 | 0.57 | 0.608 | 0.984 | 1.05 | 1.24 | 0.819 | 0.965 | 0.93 | 1.1 | 0.618 | 0.655 | 0.995 | 1.12 | 1.11 | 1.14
NCI-H2405 | 0.851 | 0.807 | 0.92 | 0.832 | 0.902 | 0.951 | 1.01 | 0.971 | 0.701 | 0.952 | 0.755 | 0.83 | 0.469 | 0.579 | 0.748 | 0.847 | 0.733 | 0.978
NCI-H3122 | 0.573 | 0.637 | 0.653 | 0.69 | 0.676 | 1 | 1.01 | 1.05 | 0.973 | 0.97 | 1 | 0.993 | 1.09 | 0.567 | 0.693 | 1.01 | 0.831 | 0.651
PC-3 [JPC-3] | 1.15 | 1.1 | 1.21 | 1.05 | 1.12 | 0.823 | 0.94 | 0.774 | 0.904 | 0.995 | 0.927 | 0.995 | 0.995 | 0.953 | 1.01 | 1.14 | 1.02 | 0.998
PC-14 | 0.263 | 0.26 | 0.252 | 0.184 | 0.318 | 0.905 | 0.861 | 0.93 | 0.771 | 0.967 | 0.984 | 0.981 | 0.993 | 0.854 | 0.903 | 1.03 | 0.877 | 0.89
RERF-LC-KJ | 0.931 | 0.807 | 0.938 | 0.545 | 0.972 | 1.11 | 1.18 | 1.09 | 1.25 | 0.859 | 0.878 | 0.923 | 0.864 | 0.78 | 0.597 | 0.782 | 0.747 | 0.69
